Reference: the NIST ThermoML archive (doi:10.1021/acs.jced.8b00399)
± gives the expanded uncertainty stated by the source.

Test: mn = molality of the nth substance listed, in mol/kg
Conditions: 99.6 kPa, Liquid; for viscosity: Capillary tube (Ostwald / Ubbelohde) method; for mass density: Vibrating tube method

CNC(C)=O [N-methylacetamide] + [Cl-].[Cl-].[Zn+2]
Conditions | mass density, 308.15 K [kg/m3] | mass density, 313.15 K [kg/m3] | mass density, 318.15 K [kg/m3] | mass density, 323.15 K [kg/m3] | mass density, 328.15 K [kg/m3] | viscosity, 308.15 K [mPa·s] | viscosity, 313.15 K [mPa·s] | viscosity, 318.15 K [mPa·s] | viscosity, 323.15 K [mPa·s] | viscosity, 328.15 K [mPa·s]
m2 = 0 | 946.01 ± 1.9 | 941.81 ± 1.9 | 937.59 ± 1.9 | 933.36 ± 1.9 | 929.17 ± 1.9 | 3.57 ± 0.044 | 3.152 ± 0.039 | 2.8 ± 0.035 | 2.496 ± 0.031 | 2.245 ± 0.028
m2 = 0.01212 | 947.01 ± 1.9 | 942.99 ± 1.9 | 938.78 ± 1.9 | 934.4 ± 1.9 | 930.23 ± 1.9 | 3.595 ± 0.044 | 3.169 ± 0.039 | 2.819 ± 0.035 | 2.512 ± 0.031 | 2.26 ± 0.028
m2 = 0.02085 | 948.03 ± 1.9 | 943.83 ± 1.9 | 939.63 ± 1.9 | 935.24 ± 1.9 | 931.05 ± 1.9 | 3.615 ± 0.044 | 3.186 ± 0.039 | 2.834 ± 0.035 | 2.528 ± 0.031 | 2.271 ± 0.028
m2 = 0.04092 | 949.55 ± 1.9 | 945.27 ± 1.9 | 941.06 ± 1.9 | 936.82 ± 1.9 | 932.75 ± 1.9 | 3.653 ± 0.045 | 3.223 ± 0.04 | 2.868 ± 0.035 | 2.558 ± 0.032 | 2.296 ± 0.028
m2 = 0.04735 | 950.23 ± 1.9 | 946.04 ± 1.9 | 941.77 ± 1.9 | 937.56 ± 1.9 | 933.2 ± 1.9 | 3.669 ± 0.045 | 3.232 ± 0.04 | 2.876 ± 0.035 | 2.566 ± 0.032 | 2.304 ± 0.028
m2 = 0.05898 | 951.13 ± 1.9 | 946.91 ± 1.9 | 942.72 ± 1.9 | 938.63 ± 1.9 | 934.26 ± 1.9 | 3.698 ± 0.045 | 3.255 ± 0.04 | 2.895 ± 0.036 | 2.584 ± 0.032 | 2.319 ± 0.029
m2 = 0.06108 | 951.43 ± 1.9 | 947.18 ± 1.9 | 942.96 ± 1.9 | 938.78 ± 1.9 | 934.52 ± 1.9 | 3.703 ± 0.045 | 3.262 ± 0.04 | 2.9 ± 0.036 | 2.586 ± 0.032 | 2.322 ± 0.029
m2 = 0.07786 | 952.85 ± 1.9 | 948.65 ± 1.9 | 944.45 ± 1.9 | 940.25 ± 1.9 | 935.97 ± 1.9 | 3.743 ± 0.046 | 3.293 ± 0.04 | 2.928 ± 0.036 | 2.612 ± 0.032 | 2.344 ± 0.029
m2 = 0.09351 | 954.27 ± 1.9 | 949.99 ± 1.9 | 945.73 ± 1.9 | 941.52 ± 1.9 | 937.33 ± 1.9 | 3.778 ± 0.046 | 3.324 ± 0.041 | 2.955 ± 0.036 | 2.635 ± 0.032 | 2.364 ± 0.029
m2 = 0.1025 | 955.14 ± 1.9 | 950.92 ± 1.9 | 946.63 ± 1.9 | 942.41 ± 1.9 | 938.12 ± 1.9 | 3.797 ± 0.047 | 3.347 ± 0.041 | 2.972 ± 0.037 | 2.652 ± 0.033 | 2.378 ± 0.029
m2 = 0.1083 | 955.59 ± 1.9 | 951.41 ± 1.9 | 947.14 ± 1.9 | 942.93 ± 1.9 | 938.6 ± 1.9 | 3.81 ± 0.047 | 3.354 ± 0.041 | 2.982 ± 0.037 | 2.659 ± 0.033 | 2.384 ± 0.029
m2 = 0.1702 | 961.31 ± 1.9 | 957.1 ± 1.9 | 952.84 ± 1.9 | 948.64 ± 1.9 | 944.4 ± 1.9 | 3.964 ± 0.049 | 3.495 ± 0.043 | 3.099 ± 0.038 | 2.765 ± 0.034 | 2.475 ± 0.03
m2 = 0.2236 | 966.13 ± 1.9 | 961.88 ± 1.9 | 957.61 ± 1.9 | 953.37 ± 1.9 | 949.14 ± 1.9 | 4.112 ± 0.05 | 3.611 ± 0.044 | 3.202 ± 0.039 | 2.854 ± 0.035 | 2.553 ± 0.031
m2 = 0.372 | 979.32 ± 2 | 975.11 ± 2 | 970.87 ± 1.9 | 966.57 ± 1.9 | 962.36 ± 1.9 | 4.544 ± 0.055 | 3.97 ± 0.048 | 3.516 ± 0.043 | 3.132 ± 0.038 | 2.795 ± 0.034
m2 = 0.6919 | 1007.77 ± 2 | 1003.5 ± 2 | 999.23 ± 2 | 994.92 ± 2 | 990.69 ± 2 | 5.686 ± 0.069 | 4.929 ± 0.06 | 4.32 ± 0.052 | 3.82 ± 0.046 | 3.381 ± 0.041
m2 = 1.299 | 1060.68 ± 2.1 | 1056.36 ± 2.1 | 1052 ± 2.1 | 1047.7 ± 2.1 | 1043.43 ± 2.1 | 8.811 ± 0.1 | 7.487 ± 0.089 | 6.416 ± 0.076 | 5.603 ± 0.067 | 4.9 ± 0.059
